Test results as given in patent US11034685B2, “Aminopyridine derivatives as TAM family kinase inhibitors” (SignalChem Lifesciences Corporation, priority 2013, dated 2021).

Key:
Format in all cases: biochemical
human Axl (473-end) = target: T1, human Axl (473-end) (Homo sapiens, UniProt P30530); assay: Kinase enzymatic activity assay ([33P]-ATP phosphate transfer), Axl; conditions: inhibitory activity on Axl; class symbols
T1 construct: GST (N); made in house; host or cells: Sf9 insect cells (baculovirus)
T1 sequence (P30530 473-894 limits assumed): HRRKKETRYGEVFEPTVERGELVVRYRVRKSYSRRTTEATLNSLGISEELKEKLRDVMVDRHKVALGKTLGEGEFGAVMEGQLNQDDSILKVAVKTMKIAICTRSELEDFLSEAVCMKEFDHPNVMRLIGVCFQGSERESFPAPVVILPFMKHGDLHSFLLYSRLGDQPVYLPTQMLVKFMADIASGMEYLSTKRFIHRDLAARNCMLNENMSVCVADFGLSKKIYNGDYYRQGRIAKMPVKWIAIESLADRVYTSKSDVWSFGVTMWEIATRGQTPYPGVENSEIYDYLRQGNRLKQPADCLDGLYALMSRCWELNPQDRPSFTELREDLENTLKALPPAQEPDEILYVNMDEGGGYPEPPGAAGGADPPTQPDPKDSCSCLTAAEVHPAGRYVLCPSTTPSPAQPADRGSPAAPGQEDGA
Method in brief: (§1)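 Kinases were N-terminal GST-tagged constructs expressed in Sf9 cells, with poly(Glu:Tyr 4:1) as substrate. Reactions ran in MOPS buffer pH 7.2 with MgCl2 and [33P]-ATP (250 μM cocktail stock) for 30 min at room temperature. Filter-bound radioactivity gave % inhibition, and IC50 was taken from serial dilutions.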

[1] = target: T2, Recombinant human Tyro3 (455-end) (Homo sapiens, UniProt Q06418); assay: Kinase enzymatic activity assay ([33P]-ATP phosphate transfer), Tyro3; conditions: inhibitory activity on Tyro3; class symbols
T2 construct: GST (N); made in house; host or cells: Sf9 insect cells (baculovirus)
T2 sequence (Q06418 455-890 limits assumed): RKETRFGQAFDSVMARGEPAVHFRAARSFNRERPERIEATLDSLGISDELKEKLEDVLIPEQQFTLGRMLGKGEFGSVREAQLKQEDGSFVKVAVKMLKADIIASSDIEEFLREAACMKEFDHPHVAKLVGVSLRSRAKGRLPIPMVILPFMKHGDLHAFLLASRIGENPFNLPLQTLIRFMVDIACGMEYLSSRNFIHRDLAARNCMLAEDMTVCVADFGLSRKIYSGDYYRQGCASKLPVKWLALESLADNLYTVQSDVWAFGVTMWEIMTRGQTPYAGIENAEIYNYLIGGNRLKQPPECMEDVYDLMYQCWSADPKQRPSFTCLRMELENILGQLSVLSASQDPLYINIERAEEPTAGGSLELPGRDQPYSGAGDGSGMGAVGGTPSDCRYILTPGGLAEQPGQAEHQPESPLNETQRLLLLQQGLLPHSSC
Method in brief: as §1

human Mer (578-872) = target: T3, human Mer (578-872) (Homo sapiens, UniProt Q12866); assay: Kinase enzymatic activity assay ([33P]-ATP phosphate transfer), Mer; conditions: inhibitory activity on Mer; class symbols
T3 construct: GST (N); made in house; host or cells: Sf9 insect cells (baculovirus)
T3 sequence (Q12866 578-872): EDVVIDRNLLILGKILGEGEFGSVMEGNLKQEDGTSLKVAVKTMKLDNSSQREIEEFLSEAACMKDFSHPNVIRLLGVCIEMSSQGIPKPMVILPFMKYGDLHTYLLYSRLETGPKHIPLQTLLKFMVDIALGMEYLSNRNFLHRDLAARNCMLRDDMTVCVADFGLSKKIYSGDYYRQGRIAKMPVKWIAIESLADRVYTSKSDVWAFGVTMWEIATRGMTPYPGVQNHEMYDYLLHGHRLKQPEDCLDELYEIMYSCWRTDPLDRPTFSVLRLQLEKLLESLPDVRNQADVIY
Method in brief: as §1

Row | IC50 (human Axl (473-end)) [µM] | IC50 [1] [µM] | IC50 (human Mer (578-872)) [µM] | Compound
1 | < 0.5 | 1 to 10 | > 10 | CC(C)(C)OC(=O)N1CCC(n2cc(-c3cnc(N)c(-c4nnc(-c5nc(C(F)(F)F)cs5)o4)c3)cn2)CC1 [tert-butyl 4-(4-(6-amino-5-(5-(4-(trifluoromethyl)-thiazol-2-yl)-1,3,4-oxadiazol-2-yl)pyridin-3-yl)-1H-pyrazol-1-yl)piperidine-1-carboxylate]
2 | 1 to 10 | 1 to 10 | 1 to 10 | CC(C)(C)OC(=O)N1CCC(n2cc(-c3cnc(N)c(-c4nnc(-c5ccc(F)cc5)o4)c3)cn2)CC1 [tert-butyl 4-(4-(6-amino-5-(5-(4-fluorophenyl)-1,3,4-oxadiazol-2-yl)pyridin-3-yl)-1H-pyrazol-1-yl)piperidine-1-carboxylate]
3 | < 0.5 | 1 to 10 | 1 to 10 | CC(C)(C)OC(=O)N1CCC(n2cc(-c3cnc(N)c(-c4nnc(-c5cnccn5)o4)c3)cn2)CC1 [tert-butyl 4-(4-(6-amino-5-(5-(pyrazin-2-yl)-1,3,4-oxadiazol-2-yl)pyridin-3-yl)-1H-pyrazol-1-yl)piperidine-1-carboxylate]
4 | < 0.5 | 1 to 10 | 1 to 10 | CC(C)(C)OC(=O)N1CCC(n2cc(-c3cnc(N)c(-c4nnc(-c5ccccn5)o4)c3)cn2)CC1 [tert-butyl 4-(4-(6-amino-5-(5-(pyridin-2-yl)-1,3,4-oxadiazol-2-yl)pyridin-3-yl)-1H-pyrazol-1-yl)piperidine-1-carboxylate]
5 | 0.5 to 1 | 1 to 10 | 1 to 10 | CC(C)(C)OC(=O)N1CCC(n2cc(-c3cnc(N)c(-c4nnc(-c5cccnc5)o4)c3)cn2)CC1 [tert-butyl 4-(4-(6-amino-5-(5-(pyridin-3-yl)-1,3,4-oxadiazol-2-yl)pyridin-3-yl)-1H-pyrazol-1-yl)piperidine-1-carboxylate]
6 | 0.5 to 1 | 1 to 10 | 1 to 10 | CC(C)(C)OC(=O)N1CCC(n2cc(-c3cnc(N)c(-c4nnc(-c5nccs5)o4)c3)cn2)CC1 [tert-butyl 4-(4-(6-amino-5-(5-(thiazol-2-yl)-1,3,4-oxadiazol-2-yl)pyridin-3-yl)-1H-pyrazol-1-yl)piperidine-1-carboxylate]

Continued, compound first:

Row | Compound | IC50 (human Axl (473-end)) [µM] | IC50 [1] [µM] | IC50 (human Mer (578-872)) [µM]
7 | Nc1ncc(-c2cnn(C3CCN(C(=O)c4ccccc4)CC3)c2)cc1-c1nnc(-c2c(Cl)cccc2Cl)o1 [(4-(4-(6-amino-5-(5-(2,6-dichlorophenyl)-1,3,4-oxadiazol-2-yl)pyridin-3-yl)-1H-pyrazol-1-yl)piperidin-1-yl)(phenyl)methanone] | < 0.5 | < 0.5 | < 0.5
8 | Nc1ncc(-c2cnn(C3CCN(C(=O)c4ccc(F)cc4)CC3)c2)cc1-c1ncc(-c2cccc(Cl)c2)o1 [(4-(4-(6-amino-5-(5-(3-chlorophenyl)oxazol-2-yl)pyridin-3-yl)-1H-pyrazol-1-yl)piperidin-1-yl)(4-fluorophenyl)methanone] | < 0.5 | < 0.5 | 1 to 10
9 | Nc1ncc(-c2cnn(C3CCN(C(=O)C4CC4)CC3)c2)cc1-c1ncc(-c2cccc(Cl)c2)o1 [(4-(4-(6-amino-5-(5-(3-chlorophenyl)oxazol-2-yl)pyridin-3-yl)-1H-pyrazol-1-yl)piperidin-1-yl)(cyclopropyl)methanone] | < 0.5 | 0.5 to 1 | 1 to 10
10 | Nc1ncc(-c2cnn(C3CCN(C(=O)C4CC4)CC3)c2)cc1-c1ncc(-c2ccc(Cl)cc2)o1 [(4-(4-(6-amino-5-(5-(4-chlorophenyl)oxazol-2-yl)pyridin-3-yl)-1H-pyrazol-1-yl)piperidin-1-yl)(cyclopropyl)methanone] | < 0.5 | < 0.5 | > 10
11 | Nc1ncc(-c2cnn(C3CCN(C(=O)c4ccccc4)CC3)c2)cc1-c1ncc(-c2ccc(Cl)cc2)o1 [(4-(4-(6-amino-5-(5-(4-chlorophenyl)oxazol-2-yl)pyridin-3-yl)-1H-pyrazol-1-yl)piperidin-1-yl)(phenyl)methanone] | < 0.5 | < 0.5 | 1 to 10
12 | CC(C)(C)OC(=O)N1CCC(n2cc(-c3cnc(N)c(-c4ncc(-c5ccc(Cl)cc5)o4)c3)cn2)CC1 [tert-butyl 4-(4-(6-amino-5-(5-(4-chlorophenyl)oxazol-2-yl)pyridin-3-yl)-1H-pyrazol-1-yl)piperidine-1-carboxylate] | 0.5 to 1 | 1 to 10 | 1 to 10
13 | CC(C)(C)OC(=O)N1CCC(n2cc(-c3cnc(N)c(-c4nnc(CC5CC5)o4)c3)cn2)CC1 [tert-butyl 4-(4-(6-amino-5-(5-(cyclopropylmethyl)-1,3,4-oxadiazol-2-yl)pyridin-3-yl)-1H-pyrazol-1-yl)piperidine-1-carboxylate] | < 0.5 | 1 to 10 | 0.5 to 1
14 | CC(C)(C)OC(=O)N1CCC(n2cc(-c3cnc(N)c(-c4nnc(Cc5ccccc5)o4)c3)cn2)CC1 [tert-butyl 4-(4-(6-amino-5-(5-benzyl-1,3,4-oxadiazol-2-yl)pyridin-3-yl)-1H-pyrazol-1-yl)piperidine-1-carboxylate] | < 0.5 | 1 to 10 | 1 to 10
15 | CC(C)(C)OC(=O)N1CCC(n2cc(-c3cnc(N)c(-c4nnc(-c5ccccc5)o4)c3)cn2)CC1 [tert-butyl 4-(4-(6-amino-5-(5-phenyl-1,3,4-oxadiazol-2-yl)pyridin-3-yl)-1H-pyrazol-1-yl)piperidine-1-carboxylate] | 1 to 10 | 1 to 10 | 1 to 10
16 | CC(C)(C)OC(=O)N1CCC(n2cc(-c3cnc(N)c(-c4ncc(-c5ccccc5)o4)c3)cn2)CC1 [tert-butyl 4-(4-(6-amino-5-(5-phenyloxazol-2-yl)pyridin-3-yl)-1H-pyrazol-1-yl)piperidine-1-carboxylate] | < 0.5 | 0.5 to 1 | 1 to 10
